Results as given in EP0185066B1, “SULPHUR-CONTAINING DERIVATIVES OF PARA-METHOXYCINNAMIC ACID, PRODUCTION PROCESSES THEREOF, DERMO-PHARMACEUTICAL AND COSMETIC COMPOSITIONS CONTAINING THEM AND APPLICATIONS” (UNIVERSITE LOUIS PASTEUR (STRASBOURG I), priority 1984, dated 1986).

How the values were obtained:
[1] = UV absorption spectrum (sunscreen filtering range); assay type: physicochemical
Source text: Les composés de formule III conformes à la présente invention possèdent des propriétés de filtres solaires intéressants. Ils présentent un maximum d'efficacité tant au niveau de leur capacité d'absorption ultra-violette qu'à celui de leur fixation sur la peau. Leur spectre d'absorption se situe dans la zone des U.V.B. érythématogènes avec un maximum vers 310 nm; ils laissent passer les rayons U.V.A.

[2] = set-up: species or system lapin; conditions: in vivo
Source text: Une étude in vivo de la fixation des filtres soufrés de formules III et Il à la couche cornée a été réalisée sur la peau de lapin. Aucune trace d'acide para-méthoxycinnamique, métabolite de tout filtre solaire de formules III ou II, n'a pu être décelée dans le sang des lapins traités. La méthode d'analyse par chromatographie en phase gazeuse couplée à la spectrométrie de masse permet de déceler des concentrations de l'ordre de 10 pg. L'on peut donc en conclure que ces composés ne pénètrent pas dans le torrent circulatoire, contrairement au para-méthoxycinnamate d'éthyle-2-hexyle évoqué dans le préambule ainsi que les produits obtenus à partir du Brevet Pierre FABRE.
Le composé présentant des propriétés de filtre solaire, conforme à la présente invention est incorporé à la concentration 5% dans une émulsion qui peut avoir par exemple la composition suivante:
Méthode de recherche de l'acide para-méthoxycinnamique (métabolite) dans le sang de lapin après application des filtres solaires soufrés conformes à l'invention incorporé dans l'émulsion précédente. • - Conditions d'application et préjèvement plasmatiques
2 g d'émulsion à tester sont appliqués sur la peau épilée du lapin. […] Les mesures sont effectuées sur la fraction plasmatique. - Déterminations quantitatives en CPG(SM […]

Compound | maximum d'absorption U.V. [1] [nm] | concentration d'acide para-méthoxycinnamique retrouvé dans le sang [2]
COc1ccc(/C=C/C(=O)OCCS)cc1 [II, para-méthoxycinnamatede thio-2-éthanol] | 310 | –
COc1ccc(/C=C/C(=O)OCCSSCC(N)C(=O)O)cc1 (stereo not drawn) [III (n = 2, m = 1, R2 = H et R1 = OH)] | 310 | –
CCCCC(CC)COC(=O)C=Cc1ccc(OC)cc1 (stereo not drawn) [PMCEH, para-méthoxycinnamate d'éthyle-2 hexyle] | – | comprise entre le ng et plusieurs µg
